#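 Briefly, cells in 96-well plates were exposed to five compound concentrations for 48 h, and endpoints were estimated by linear interpolation. Abbreviation: GI50, concentration required for 50% inhibition of growth.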 Active and inactive are the calls of the source. Rule as the data show it: active = GI50 up to about 1.1 µM and inactive = higher.
# How the values were obtained:
# Assay in all cases: inhibition of tumour cell growth, NCI panel, 48 h
# [1] = system: SN12C
# [2] = system: T47D
# [3] = system: NCI-H522
# [4] = system: Hs-578T
# [5] = system: A498
# [6] = system: DU-145
# [7] = system: RXF 393
# [8] = system: KM12
# [9] = system: U-251
# [10] = system: SK-MEL-5
# [11] = system: SF-539
# [12] = system: SF-268
# [13] = system: OVCAR-5
# [14] = system: RPMI-8226
# [15] = system: OVCAR-4
# [16] = system: HOP-92
# [17] = system: TK-10
# [18] = system: HOP-62
# [19] = system: HCT-116
# [20] = system: MDA-N
SMILES,GI50 [1],GI50 [2],GI50 [3],GI50 [4],GI50 [5],GI50 [6],GI50 [7],GI50 [8],GI50 [9],GI50 [10],GI50 [11],GI50 [12],GI50 [13],GI50 [14],GI50 [15],GI50 [16],GI50 [17],GI50 [18],GI50 [19],GI50 [20]
O=c1[nH]c2cc([N+](=O)[O-])c(Nc3c4ccccc4nc4ccccc34)c([N+](=O)[O-])c2[nH]1,2.17 µM (inactive),2.49 µM (inactive),1.46 µM (inactive),7.18 µM (inactive),2.08 µM (inactive),2.29 µM (inactive),2.42 µM (inactive),2.26 µM (inactive),3.58 µM (inactive),2.45 µM (inactive),3.28 µM (inactive),3.15 µM (inactive),2.4 µM (inactive),2.55 µM (inactive),3.07 µM (inactive),2.48 µM (inactive),1.92 µM (inactive),2.67 µM (inactive),0.82 µM (active),
O=C1/C(=C/c2ccc(Cl)cc2)CCC1CNc1ccc(Cl)cc1 (stereo unspecified),10.2 µM (inactive),,1.8 µM (inactive),16.1 µM (inactive),14.9 µM (inactive),13.5 µM (inactive),11.6 µM (inactive),1.29 µM (inactive),9.71 µM (inactive),3.33 µM (inactive),7.76 µM (inactive),7.4 µM (inactive),25.2 µM (inactive),0.78 µM (active),18.9 µM (inactive),19.3 µM (inactive),5.11 µM (inactive),19.9 µM (inactive),4.73 µM (inactive),11.8 µM (inactive)
S=c1nc(N/N=C/c2cccs2)c2cn[nH]c2[nH]1,32.3 µM (inactive),23.7 µM (inactive),27.3 µM (inactive),> 100 µM (inactive),4.02 µM (inactive),34.8 µM (inactive),16.1 µM (inactive),6.43 µM (inactive),25.1 µM (inactive),31.1 µM (inactive),50.2 µM (inactive),38 µM (inactive),17.2 µM (inactive),5.04 µM (inactive),31.5 µM (inactive),52.6 µM (inactive),17.9 µM (inactive),23.2 µM (inactive),16.2 µM (inactive),
COc1cccc2c1C(=O)C=CC2=O,14 µM (inactive),2.22 µM (inactive),2.39 µM (inactive),15.4 µM (inactive),16.2 µM (inactive),19.2 µM (inactive),6.76 µM (inactive),9.82 µM (inactive),6.81 µM (inactive),15.3 µM (inactive),16.1 µM (inactive),6.73 µM (inactive),18.9 µM (inactive),2.1 µM (inactive),1.95 µM (inactive),1.99 µM (inactive),14.2 µM (inactive),19.9 µM (inactive),3.44 µM (inactive),
CCOC(=O)/C=C/CC(C)(C)CCOC(C)=O,> 10 µM (inactive),> 10 µM (inactive),> 10 µM (inactive),> 10 µM (inactive),,> 10 µM (inactive),> 10 µM (inactive),> 10 µM (inactive),> 10 µM (inactive),> 10 µM (inactive),> 10 µM (inactive),> 10 µM (inactive),> 10 µM (inactive),> 10 µM (inactive),> 10 µM (inactive),> 10 µM (inactive),> 10 µM (inactive),> 10 µM (inactive),> 10 µM (inactive),> 10 µM (inactive)
CCOP(=O)(OCC)/C(=C/NC(=S)c1ccncc1)C(=O)OC,> 100 µM (inactive),> 100 µM (inactive),> 100 µM (inactive),> 100 µM (inactive),,> 100 µM (inactive),> 100 µM (inactive),> 100 µM (inactive),> 100 µM (inactive),> 100 µM (inactive),> 100 µM (inactive),> 100 µM (inactive),> 100 µM (inactive),> 100 µM (inactive),> 100 µM (inactive),> 100 µM (inactive),> 100 µM (inactive),> 100 µM (inactive),> 100 µM (inactive),> 100 µM (inactive)
COc1ccc(O)c(/C=N\Nc2ccccc2)c1,29.6 µM (inactive),0.402 µM (active),2.32 µM (inactive),30.1 µM (inactive),15.5 µM (inactive),25.5 µM (inactive),84.3 µM (inactive),,26.2 µM (inactive),22.5 µM (inactive),12.2 µM (inactive),13.1 µM (inactive),19.5 µM (inactive),0.021 µM (active),8.45 µM (inactive),14 µM (inactive),,44.7 µM (inactive),22.6 µM (inactive),
